# Entries after “also recorded” stand apart in the source; their conditions may differ.
# Experiments:
# [1] = biological target: Sm.5HTRL (Schistosoma mansoni, UniProt A0A173FEI8); assay: GloSensor cAMP assay in HEK293 cells expressing Sm.5HTRL; type: cell-based
# Procedure: (§1) HEK293 cells (ATCC CRL-1573.3) were cultured in DMEM supplemented with 10% fetal bovine serum (FBS), penicillin (100 units/ml), streptomycin (100 μg/ml), and L-glutamine (290 μg/ml). Cells were transiently transfected (ViaFect, Promega) as per the manufacturer’s protocol at a density of 2x10^6 cells per T-25 cell-culture flask. Cells were transfected with plasmids encoding GloSensor (Promega) and either Sm.5HTR (Smp_126730, GenBank accession number KF444051.1) or Sm.5HTRL (KX150867), bothGPCRs being codon optimized for mammalian expression, or Hs.5HT7a (GenBank accession number NM_000872.4, R&D Systems) subcloned into pCS2(-). Cell culture reagents were from Invitrogen. Epitope tagged constructs were used to verify expression, and untagged constructs used for all luminescence assays.
# (§2) For assays performed on adherent cells, HEK-293 cells were transferred one day post transfection to 96 well, solid white plates (Corning, cat # 3917) coated with 0.01% poly-L-lysine (Sigma Aldrich) at a density of 5 x 10^4 cells / well in DMEM supplemented with 1% dialyzed FBS (Gibco). After overnight culture (37°C/5% CO2), media was decanted and replaced with 100μL / well HBSS supplemented with 0.1% BSA, 20mM HEPES (pH 7.4) and GloSensor reagent. Plates were allowed to equilibrate at room temperature for two hours prior to performing luminescence assays (GloMax-Multi Detection System plate reader, Promega). Conditions for individual assays were described as per figure legends. The standard assay to detect changes in cAMP utilized the F22 sensor in media supplemented with IBMX (200μM). Ligands were added at a concentration of 20x per well for experiments (i.e. 5μl of drug solution added to 100μl of cells). […] For the resazurin reduction assay for cellular viability, cells were incubated with resazurin (final concentration, 10μM) and tested ligands with fluorescence measurements (560 nm excitation/590 nm emission) made at 1.5hr intervals.
# [2] = test system: adult schistosomes; assay: Adult schistosome mobility assay; type: in vivo, Schistosoma mansoni; settings: 5-HT application
# Procedure: Female Swiss Webster mice exposed to Schistosoma mansoni cerceria (Strain PR-1) at 5–7 weeks old were obtained from BEI Resources (Cat. number NR-34792) and sacrificed 6–8 weeks post-infection. Mature S. mansoni were harvested from the mesenteric vasculature by portal perfusion. Briefly, mice were anesthetized in a CO2 chamber and sacrificed by cervical dislocation. Mice were perfused with sodium citrate (25mM) and adult schistosomes were harvested from the mesenteric veins. Schistosomes were washed in RPMI media containing penicillin (1000 units/mL), streptomycin (1000 μg/mL) and 25mM HEPES, then transferred to RPMI media supplemented with 2mM glutamine and 5% heat inactivated FBS. Worms were incubated overnight at 37°C, 5% CO2 before conducting assays. Recordings of adult schistosome movement were captured using a Zeiss Discovery v20 stereomicroscope and a QiCAM 12-bit cooled color CCD camera. Videos were acquired at a rate of four frames per second for one minute. Recordings of female worms were acquired at 7.6x magnification, 30 mm field of view and recordings of male worms were acquired at a 5.1x magnification, 45 mm field of view. Analysis was performed in ImageJ as described previously. Briefly, image (.tiff) stacks of each recording were imported and processed by converting to binary format so that pixel measurements represent area of the worms’ bodies. Mobility was quantified by measuring the difference in pixels resulting from subtracting the value of one frame (n) from those of the next frame in the sequence (n+1). This difference was expressed as a percentage of the pixels in the initial frame (n), providing a measurement of the worms’ movement over a period of 0.25 seconds. This calculation was performed for each frame in the video, and the results were averaged over the length of the recording. Values reported represent the mean (±) standard error of at least three independent experiments. Animal work was carried out with the oversight and approval of the Laboratory Animal Resources facility at the Iowa State University College of Veterinary Medicine.
# [3] = test system: S. mansoni schistosomules; assay: Schistosomule contractility assay; type: in vivo, Schistosoma mansoni; settings: exogenous addition, dose-dependent
# Procedure: Biomphalaria glabrata (M-line) snails exposed to Schistosoma mansoni miracidia (Strain PR-1) were obtained from BEI Resources (Cat. number NR-21961) and cercaria were shed following exposure to light (1.5 hours). Cercaria were manually transformed into schistosomula by vortexing (3 x 45 seconds, each separated by 3 minutes on ice) and tails were removed by gradient centrifugation (24ml Percoll, 4ml 10X EMEM, 1.5ml penicillin-streptomycin, 1ml of 1M HEPES in 0.85% NaCl, 9.5ml distilled water) at 500g/15min at 4°C. Supernatant containing tails was discarded, and schistosomules were resuspended in Basch media and incubated (37°C, 5% CO2) overnight before conducting mobility assays. For contractility experiments, somules were incubated in 5-HT free Basch media to resolve a basal contractility rate. […] Schistosomules were incubated in 24 well plates (~200 schistosomules / 0.5mL media per well) for 30 minutes (37°C/5% CO2) prior to acquiring videos of schistosome movement (1 minute recordings / well) using a Nikon Coolpix 5700 camera affixed to a Nikon Eclipse TS100 microscope (10x objective). The WrmTrck plugin for ImageJ was used to quantify worm mobility. Briefly, the major axis of each schistosomule body length was extracted from the raw output of WrmTrck and an average length was determined for the duration of the recording. Contractions were quantified by determining the number of episodes during which the worm body length deviated from the average by over 20%. S. mansoni protocols were approved by the Iowa State University Institutional Biosafety Committee.
# [4] = biological target: T1, Sm.5HTR (Schistosoma mansoni, UniProt G4V5G4); assay: cell-based; type: cell-based; settings: for activity at Sm.5HTR: antagonist/modulator screening; for GPCR inhibition profile compared with rotundine: Sm.5HTR vs Hs.5HT7R, Fig F in S1 Text; for ligand type at Sm.5HTR: Fig 5F
# Procedure: as §1, §2
# [5] = biological target: T2, Hs.5HT7R (Homo sapiens, UniProt P34969); assay: GloSensor cAMP assay in HEK293 cells expressing Hs.5HT7R; type: cell-based; settings: Fig 4
# T2 construct: host or cells: HEK293 (ATCC CRL-1573.3), transient transfection, pCS2(-) vector
# Procedure: as §1, §2
# [6] = biological target: T1, Sm.5HTR; assay: Antagonist washout (inactivating antagonist) GloSensor assay on suspension cells; type: cell-based; settings: 10μM for 30 mins, washout, 5-HT response 1hr later
# Procedure: To test putative irreversible antagonists, assays on suspension cells were performed one day post transfection. […] Compounds were added at 10 μM, and after 30 minute incubation at room temperature cells were centrifuged (300 RCF, 5 minutes) and resuspended in fresh media. This wash step was repeated, and cells were resuspended in HBSS supplemented with 0.1% BSA, 20mM HEPES and GloSensor reagent. Cells were gently rotated to prevent aggregation and settling over the course of the two hour equilibration period, after which time they were transferred to 96 well plates at a density of 8 x 10^4 cells / 100μL per well and assays described for adherent cells.
# Chain of Sm.5HTRL (A0A173FEI8 entry or part of it): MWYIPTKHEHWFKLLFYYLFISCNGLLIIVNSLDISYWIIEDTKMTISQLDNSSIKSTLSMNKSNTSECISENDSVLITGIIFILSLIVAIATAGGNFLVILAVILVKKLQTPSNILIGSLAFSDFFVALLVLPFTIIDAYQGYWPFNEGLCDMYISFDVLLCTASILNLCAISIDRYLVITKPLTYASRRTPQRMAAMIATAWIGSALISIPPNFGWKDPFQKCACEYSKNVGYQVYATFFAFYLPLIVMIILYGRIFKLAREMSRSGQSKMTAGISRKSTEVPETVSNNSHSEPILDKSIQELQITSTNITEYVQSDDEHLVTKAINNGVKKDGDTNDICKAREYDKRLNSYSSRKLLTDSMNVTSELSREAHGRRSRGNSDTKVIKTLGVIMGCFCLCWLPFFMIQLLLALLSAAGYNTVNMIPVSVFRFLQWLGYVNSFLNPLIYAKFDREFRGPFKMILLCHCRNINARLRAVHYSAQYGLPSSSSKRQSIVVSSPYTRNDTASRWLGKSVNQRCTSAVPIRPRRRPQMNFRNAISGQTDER
# T1 sequence (G4V5G4 entry or part of it): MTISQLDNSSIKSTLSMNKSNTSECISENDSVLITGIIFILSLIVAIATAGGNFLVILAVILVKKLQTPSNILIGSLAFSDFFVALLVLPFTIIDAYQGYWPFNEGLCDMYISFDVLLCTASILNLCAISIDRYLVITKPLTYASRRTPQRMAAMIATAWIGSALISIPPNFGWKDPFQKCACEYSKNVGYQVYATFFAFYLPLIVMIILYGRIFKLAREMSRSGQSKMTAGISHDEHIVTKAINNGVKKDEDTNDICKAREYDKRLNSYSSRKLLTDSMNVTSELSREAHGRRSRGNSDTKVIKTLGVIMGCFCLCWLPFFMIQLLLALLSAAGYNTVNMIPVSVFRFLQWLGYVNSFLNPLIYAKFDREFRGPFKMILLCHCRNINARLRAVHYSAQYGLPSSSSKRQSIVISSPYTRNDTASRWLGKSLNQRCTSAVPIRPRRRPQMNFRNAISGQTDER
# T2 sequence (P34969 1-445 isoform P34969-2): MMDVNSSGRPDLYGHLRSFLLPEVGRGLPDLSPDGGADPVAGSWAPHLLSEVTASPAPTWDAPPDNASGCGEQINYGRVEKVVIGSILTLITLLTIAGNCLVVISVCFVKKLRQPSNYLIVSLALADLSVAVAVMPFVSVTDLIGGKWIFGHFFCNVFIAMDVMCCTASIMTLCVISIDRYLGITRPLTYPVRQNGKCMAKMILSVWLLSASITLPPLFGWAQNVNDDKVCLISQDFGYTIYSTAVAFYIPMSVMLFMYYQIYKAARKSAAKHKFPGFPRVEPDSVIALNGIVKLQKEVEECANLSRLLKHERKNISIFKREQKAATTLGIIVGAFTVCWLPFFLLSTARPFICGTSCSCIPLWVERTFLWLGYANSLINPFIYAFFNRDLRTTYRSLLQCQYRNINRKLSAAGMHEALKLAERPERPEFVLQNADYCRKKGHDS
structure (smiles),measurement,setting,value
"NCCc1c[nH]c2ccc(O)cc12 [5-HT, Serotonin]",EC50,"[1]; F22 sensor with IBMX, read-out: EC50 (cAMP generation, Sm.5HTRL)",200 ± 30 nM
same,EC80,[1]; HEK293,0.8 µM
same,greater sensitivity of Sm.5HTRL vs Sm.5HTR,[1]; ratio of 5-HT EC50 values,~ 10 fold
same,effect on movement of unpaired male and female worms,[2],significantly increased the movement
same,effect on basal contractile rate of schistosomules,[3],increase in the basal contractile rate
CCN1CCCC1CNC(=O)c1cc(S(=O)(=O)CC)c(N)cc1OC (stereo not shown) [amisulpride],activity at Sm.5HTR,[4],modest effects
COc1cc2c(cc1OC)-c1cc3ccc(OC)c(OC)c3c[n+]1CC2 [palmatine],GPCR inhibition profile compared with rotundine,[4],decreased potency and selectivity for Sm.5HTR
COc1ccc2cc3[n+](cc2c1OC)CCc1cc2c(cc1-3)OCO2 [berberine],GPCR inhibition profile compared with rotundine,[4],decreased potency and selectivity for Sm.5HTR
CNCCC(Oc1ccc(C(F)(F)F)cc1)c1ccccc1 (stereo not shown) [fluoxetine],selectivity for Sm.5HTR over Hs.5HT7R,[4]; IC50 (Hs.5HT7R) / IC50 (Sm.5HTR),preferential selectivity toward Sm.5HTR
O=S(=O)(c1ccccc1)c1cnc2c(N3CCNCC3)cccc2c1 [SB742457],activity at Sm.5HTR,[4],completely lacked activity; also recorded: modest effects
same,inhibition of Hs.5HT7R,[5],potent inhibitors
"O=C(C1CCCCC1)N1CC(=O)N2CCc3ccccc3C2C1 (stereo not shown) [Praziquantel, praziquantel]",ligand type at Sm.5HTR,[4],Inactive
same,activity at Sm.5HTR,[4]; listed as PZQ,did not reveal any modulation of receptor activity; also recorded: did not yield any effect
CC1CCN(CC[C@H]2CCCN2S(=O)(=O)c2cccc(O)c2)CC1 [SB269970],activity at Sm.5HTR,[4],modest effects
same,activity at Sm.5HTR,[4]; listed as SB 269970,completely lacked activity
Cc1nc2n(c(=O)c1CCN1CCC(c3noc4cc(F)ccc34)CC1)CCCC2 [risperidone],acute inhibition of 5-HT (10μM) response at Sm.5HTR,[4],Inhibition of 5-HT response
same,inhibition of Sm.5HTR after antagonist wash-out,[6],long-lasting inhibition
"CCN(CC)C(=O)[C@@H]1C=C2c3cccc4[nH]cc(c34)C[C@H]2N(C)C1 [LSD, lysergic acid diethylamide]",ligand type at Sm.5HTR,[4],Antagonist
same,Kb,"[4]; KB (affinity constant, Schild regression), right-shift of 5-HT dose-response",629 nM
same,inhibition of 5-HT evoked cAMP generation,[4]; at higher concentrations (>10μM),almost complete inhibition
same,agonist efficacy at Sm.5HTR,"[4]; dose response, Fig 5A",no efficacy
same,Kb,"[4]; pKB ± S.E.M, Schild regression",631 nM

# From article PMC4871480, “A Miniaturized Screen of a Schistosoma mansoni Serotonergic G Protein-Coupled Receptor Identifies Novel Classes of Parasite-Selective Inhibitors” (PLoS Pathogens, 2016)
